This is an account of results in patent publication US10919896B2, “Preparation and uses of pyrimidinone derivatives” (Cancer Research Technology Limited, priority 2016, dated 2021).

For experiment [1], the system named is Cdc7 (pS53MCM2 levels in HCT116 cells). In words: Cdc7 Cell Pharmacodynamics Assay Method 1: pS53MCM2 levels in HCT116 cells, 6 hours. Type of experiment: cell-based. The conditions noted are these: for EC50: Homo sapiens, HCT-116, 6 h, read-out: Biomarker Method 1 (pEC50) (converted). From the text: This protocol describes a method to investigate the inhibition of Cdc7 activity of compounds by measuring pS53MCM2 levels in cells after treatment.
• HCT116 cells (wild type P53 positive) • McCoys 5A media (PAA Laboratories Ltd, E15-022) • 10% FCS (Sera Laboratories International Ltd, EU000F Batch:108005) • 100× L-Glutamine (Invitrogen, 25030-024) • D-PBS without CaCl2 and MgCl2 (Invitrogen, ref 14190-094) • Trypsin/EDTA (Invitrogen 25300-054) • 2% BSA in PBS • Cell Extraction Buffer (Invitrogen FNN0011) • Protease inhibitor cocktail (Sigma P-2714) • PMSF 0.3M stock in DMSO (Sigma P7626) • Antibody-rabbit pMCM2 Ser53 (Bethyl #A300-756A) • Antibody-goat MCM2 (Bethyl #A300-122A) • Antibody-goat Anti Rabbit IgG HRP (Perbio Science UK Ltd 31462) • 1×PBS • FACE Wash buffer (0.02% Triton X100 in 1×PBS) • SuperSignal ELISA Pico Chemiluminescent Substrate (Perbio Science UK Ltd 37070) Method • 72 hours prior to the start of the experiment plate 1×10^6 HCT 116 cells in a 150 cm^2 flask in complete McCoys 5A media (+10% FCS+1× L-glutamine). • Plate 20,000 HCT116 cells per well in standard TC treated 96 well plate in 100 μL complete McCoys 5A media. • Allow cells to settle overnight in incubator set at 37° C. and 5% CO2. • Remove intermediate plate from fridge and place at 37° C. overnight to allow to equilibrate. • Cell treatment: cell assay plate 100 μL; daughter to cell transfer volume 3.33 μL; daughter volume 45 μL; mother plate to daughter volume 5 μL. • Once all cells are treated remove the cells to the incubator and incubate for 6 hours. • Dilute the capture antibody (total MCM2#A300-122A) 1 in 250 in the required volume of PBS (5 mL per assay plate) and add 50 μL to each well of a Hybond plate excluding wells 12E to 12H. In these wells add 50 μL PBS. Seal the plate and incubate at room temperature for a minimum of 2 hours. • Defrost aliquot of Invitrogen Cell Extraction Buffer (FNN0011) on ice and supplement with appropriate volume of both Sigma protease inhibitor cocktail (P-2714) and PMSF (final conc 1 mM from a 1 M stock in DMSO). • After the 6 hour cell treatment time tap out the media from the assay plates and place them in the −70° C. freezer for at least 5 minutes. • Remove plates from freezer and add 20 μL of ice cold complete lysis buffer on ice. Incubate cells for 30 minutes at 4° C. • Add 80 μL per well 2% BSA. • Transfer 80 μL from the lysis plate to the same wells in the capture/ELISA plate. Cover with plate seal and incubate plates overnight at 4° C. • Wash plates with PBS, remove any residual remaining liquid and add 50 μL per well of pMCM2 Ser53 antibody (#A300-756A) diluted 1 in 100 in 2% BSA. Cover plate and incubate at room temperature for 2 hours with gentle shaking. • Wash plates with PBS, remove any residual remaining liquid and Incubate with 50 μL goat anti rabbit antibody (1 in 800 dilution in 2% BSA) for 1 hour at room temperature. • Wash plates with PBS, remove any residual remaining liquid and add 50 μL mixed SuperSignal Pico substrate. • Incubate each plate for 5 minutes at room temperature shielding the plates from direct light (with a cover plate). Read plates with the luminescent detection. Method 2A and 2B

The target in experiment [2] is Cdc7/ASK (Homo sapiens, UniProt O00311). In words: Cdc7 Biochemical Assay Method 1: 384 well ELISA, whole protein substrate MCM2, antibody against Phospho MCM2 (S53). Set-up: purchased. The note with it: 2 μM ATP, read-out: Biochemical Method 1 (pIC50) (converted). Put shortly: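 MCM2 protein substrate was coated on nickel-chelate plates, then Cdc7/ASK was added with 2 μM ATP in 50 mM Tris-HCl pH 8.5, 10 mM MgCl2, 1 mM DTT, 4% DMSO, 90 min at room temperature. Phospho-MCM2 (S53) was detected by ELISA with an AP secondary and PNPP absorbance. IC50 was derived from % inhibition versus no-compound and no-enzyme controls.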
Chain of Cdc7/ASK (O00311 whole entry): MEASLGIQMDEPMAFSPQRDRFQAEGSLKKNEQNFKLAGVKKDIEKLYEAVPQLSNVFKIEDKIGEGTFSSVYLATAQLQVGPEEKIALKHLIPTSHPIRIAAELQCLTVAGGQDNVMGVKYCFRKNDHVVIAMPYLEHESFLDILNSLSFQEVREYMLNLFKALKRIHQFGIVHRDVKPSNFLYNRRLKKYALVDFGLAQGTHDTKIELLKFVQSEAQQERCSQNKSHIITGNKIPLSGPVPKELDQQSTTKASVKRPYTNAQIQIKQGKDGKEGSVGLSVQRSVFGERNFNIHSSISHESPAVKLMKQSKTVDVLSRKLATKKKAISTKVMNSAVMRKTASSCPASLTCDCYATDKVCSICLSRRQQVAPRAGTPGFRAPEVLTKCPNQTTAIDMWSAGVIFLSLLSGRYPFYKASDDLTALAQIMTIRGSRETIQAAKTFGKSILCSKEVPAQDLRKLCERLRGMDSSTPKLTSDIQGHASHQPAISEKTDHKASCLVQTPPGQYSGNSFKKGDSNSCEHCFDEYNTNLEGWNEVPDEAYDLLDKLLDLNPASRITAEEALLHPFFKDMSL
Chain of Cdc7/ASK (Q9UBU7 whole entry partner): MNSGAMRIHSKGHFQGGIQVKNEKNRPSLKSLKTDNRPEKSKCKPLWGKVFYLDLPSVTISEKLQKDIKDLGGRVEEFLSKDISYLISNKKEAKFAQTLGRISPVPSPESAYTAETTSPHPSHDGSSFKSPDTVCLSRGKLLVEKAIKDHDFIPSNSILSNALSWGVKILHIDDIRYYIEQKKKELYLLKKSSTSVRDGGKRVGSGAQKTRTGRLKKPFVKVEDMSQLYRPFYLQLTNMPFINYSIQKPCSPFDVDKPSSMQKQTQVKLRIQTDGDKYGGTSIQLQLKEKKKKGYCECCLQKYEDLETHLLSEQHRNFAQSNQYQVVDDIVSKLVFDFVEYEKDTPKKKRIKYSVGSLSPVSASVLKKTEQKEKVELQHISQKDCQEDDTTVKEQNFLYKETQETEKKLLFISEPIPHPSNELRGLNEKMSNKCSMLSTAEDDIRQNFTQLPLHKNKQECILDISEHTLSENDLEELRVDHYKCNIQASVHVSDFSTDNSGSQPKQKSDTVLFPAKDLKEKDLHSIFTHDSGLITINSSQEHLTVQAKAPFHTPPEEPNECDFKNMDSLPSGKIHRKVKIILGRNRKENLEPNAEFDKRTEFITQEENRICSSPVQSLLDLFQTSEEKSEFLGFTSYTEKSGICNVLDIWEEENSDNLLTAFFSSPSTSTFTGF

For experiment [3], the target named is Cdc7/Dbf4 (Homo sapiens, UniProt O00311). In words: Cdc7 Biochemical Assay Method 3: Cdc7/Dbf4 Enzyme TR-FRET Assay measuring pS40MCM2. The note with it: 1 μM ATP, read-out: Biochemical Method 3 (pIC50) (converted). The procedure: This protocol describes a method for assaying a compounds' ability to inhibit Cdc7 activity by measuring pS40MCM2 levels in a Cdc7/Dbf4 Enzyme TR-FRET Assay.
Chain of Cdc7/Dbf4 (O00311 whole entry): as the sequence (O00311 whole entry) above
Chain of Cdc7/Dbf4 (Q9UBU7 whole entry partner): as the sequence (Q9UBU7 whole entry partner) above
2.5 nM Cdc7/Dbf4 was incubated with 100 nM of biotin-labelled peptide 35-TDALTS(pS)PGRDLP in the presence of 1 μM ATP at 25° C. for 120 minutes. The phosphorylation of the peptide was detected using TR-FRET. Anti-Mcm2 (pS40) antibody, Terbium anti-rabbit secondary antibody and Streptavidin-Alexa Fluor488 form the detection system.
(In general: In TR-FRET formats the signal depends on donor and acceptor labels being close together.)

Structures can show the parent of a compound that is named as a salt.

Take `O=c1[nH]c(-c2ccncc2)nc(N2CCSCC2)c1Cl` [Compound 128]: the EC50 in experiment [1] is 79.4 nM. In experiment [2], the IC50 was 2.57 nM.

Take `CC(=O)N1CCN(c2nc(-c3ccncc3)[nH]c(=O)c2Cl)C[C@@H]1C` [Compound 78]: the EC50 in experiment [1] is 468 nM. Also, the IC50 in experiment [2] was 2.29 nM.

Regarding `O=c1[nH]c(-c2ccncc2)nc(N2CCN(CC(F)(F)C(F)F)CC2)c1Cl` [Compound 152], the EC50 in experiment [1] is 871 nM. Further, in experiment [2], the IC50 is 19.5 nM.

For `O=c1[nH]c(-c2ccncc2)nc(N2CCCC(F)C2)c1Cl` (stereo not drawn) [Compound 131], the EC50 in experiment [1] was 112 nM. In addition, the IC50 in experiment [2] is 8.13 nM.

In the case of `O=c1[nH]c(-c2ccncc2)nc(N2CCOC(CCO)C2)c1Cl` (stereo not drawn) [Compound 94], in experiment [1], the EC50 is 759 nM. Besides, the IC50 in experiment [2] was 6.92 nM.

Consider `CC1(C)CN(c2nc(-c3ccncc3)[nH]c(=O)c2Cl)CCO1` [Compound 121], for which, in experiment [1], the EC50 is 117 nM. Further, in experiment [2], the IC50 is 5.62 nM.

Turning to `O=c1[nH]c(-c2ccncc2)nc(N2CCC(CO)CC2)c1Cl` [Compound 109], in experiment [1], the EC50 was 151 nM. Moreover, in experiment [2], the IC50 was 3.63 nM.

Consider `O=C(N1CCCN(c2nc(-c3ccncc3)[nH]c(=O)c2Cl)CC1)C(F)(F)F` [Compound 144], for which the EC50 in experiment [1] is 589 nM. For the same molecule, the IC50 in experiment [2] was 9.33 nM.

In the case of `C[C@@H]1CN(c2nc(-c3ccncc3)[nH]c(=O)c2Cl)[C@H](C)CN1` [Compound 166], in experiment [1], the EC50 was 2820 nM. Moreover, the IC50 in experiment [2] was 35.5 nM.

Regarding `CC1(C)CN(c2nc(-c3ccncc3)[nH]c(=O)c2Cl)CCN1` [Compound 361], the EC50 in experiment [1] was 2400 nM. Besides, the IC50 in experiment [2] was 2.34 nM.

Regarding `CC(C)(C)[C@H]1CN(c2nc(-c3ccnc(F)c3)[nH]c(=O)c2Cl)CCN1.Cl` [Compound 160], the “Biomarker Method 1 (pEC50)” value in experiment [1] was determined as 7.50. In experiment [2], the IC50 was 1.62 nM.

On to `O=c1[nH]c(-c2ccncc2)nc(N2CCOC(C(F)(F)F)C2)c1Cl` (stereo not drawn) [Compound 159], for which the EC50 in experiment [1] was 209 nM. Also, the IC50 in experiment [2] is 6.61 nM.

As to `CC(F)(F)C1CN(c2nc(-c3ccncc3)[nH]c(=O)c2Cl)CCN1` (stereo not drawn) [Compound 156], in experiment [1], the EC50 was 66.1 nM. In addition, the IC50 in experiment [2] was 3.98 nM.

For the molecule `O=c1[nH]c(-c2ccncc2)nc(N2CCOCC2)c1Cl` [Compound 89, 5-chloro-4-morpholino-2-(4-pyridyl)-1H-pyrimidin-6-one], the EC50 in experiment [1] was 74.1 nM. Further, the IC50 in experiment [2] was 2.29 nM.

In the case of `CC(C)CN1CCC(c2nc(-c3ccnc(F)c3)[nH]c(=O)c2Cl)CC1` [Compound 87], in experiment [1], the EC50 was 148 nM. In experiment [2], the IC50 was 3.02 nM.

With `O=C(N1CCN(c2nc(-c3ccncc3)[nH]c(=O)c2Cl)CC1)C(F)(F)F` [Compound 76], in experiment [1], the EC50 is 182 nM. Further, in experiment [2], the IC50 is 3.47 nM.

In the case of `COc1ccc(C2CN(c3nc(-c4ccncc4)[nH]c(=O)c3Cl)CCN2)cc1` (stereo not drawn) [Compound 169], the EC50 in experiment [1] is 562 nM. In experiment [2], the IC50 was 30.2 nM.

Regarding `C[C@H]1CN(c2nc(-c3ccnc(F)c3)[nH]c(=O)c2Cl)CCN1` [Compound 171], the EC50 in experiment [1] is 72.4 nM. Further, the IC50 in experiment [2] is 1.17 nM.

As to `O=c1[nH]c(-c2ccncc2)nc(N2CCN[C@@H](Cc3ccccc3)C2)c1Cl` [Compound 164], the EC50 in experiment [1] is 724 nM. Moreover, in experiment [2], the IC50 is 20.9 nM.

Turning to `C#CCN1CCN(c2nc(-c3ccncc3)[nH]c(=O)c2Cl)CC1` [Compound 150], the EC50 in experiment [1] was 427 nM. Moreover, the IC50 in experiment [2] is 14.1 nM.

As for `O=c1[nH]c(-c2ccncc2)nc(N2CCCC(C(F)(F)F)C2)c1Cl` (stereo not drawn) [Compound 176], the “Biomarker Method 1 (pEC50)” value in experiment [1] was 5.56. Further, the IC50 in experiment [2] is 20.9 nM.

Take `O=c1[nH]c(-c2ccncc2)nc(N2CCCC(CO)C2)c1Cl` (stereo not drawn) [Compound 123]: the EC50 in experiment [1] was 224 nM. Moreover, in experiment [2], the IC50 was 9.33 nM.

For `CN1CCN(c2nc(-c3ccncc3)[nH]c(=O)c2Cl)CC1` [Compound 81], the EC50 in experiment [1] was 195 nM. For the same molecule, the IC50 in experiment [2] was 9.33 nM.

For `O=c1[nH]c(-c2ccncc2)nc(N2CCNC(c3cccs3)C2)c1Cl` (stereo not drawn) [Compound 177], the EC50 in experiment [1] was 214 nM. Besides, in experiment [2], the IC50 is 5.13 nM.

Turning to `O=c1[nH]c(-c2ccncc2)nc(N2CCN(CCO)CC2)c1Cl` [Compound 125], in experiment [1], the EC50 is 912 nM. The IC50 in experiment [2] is 40.7 nM.

Consider `O=C(OCc1ccccc1)N1CCN(c2nc(-c3ccncc3)[nH]c(=O)c2Cl)CC1` [Compound 112], for which, in experiment [1], the EC50 is 759 nM. In addition, in experiment [2], the IC50 was 6.17 nM.

For the molecule `O=c1[nH]c(-c2ccncc2)nc(N2CCN(CC3CCCCC3)CC2)c1Cl` [Compound 85], in experiment [1], the EC50 was 891 nM. Moreover, in experiment [2], the IC50 was 47.9 nM.

Consider `O=c1[nH]c(-c2ccncc2)nc(N2CCCCCC2)c1Cl` [Compound 114], for which the EC50 in experiment [1] is 1550 nM. Further, the IC50 in experiment [2] was 19.1 nM.

Turning to `O=c1[nH]c(-c2ccncc2)nc(N2CCCN(CCO)CC2)c1Cl` [Compound 136], the EC50 in experiment [1] was 2090 nM. The IC50 in experiment [2] is 20 nM.

Take `O=c1[nH]c(-c2ccncc2)nc(N2CCC(C(F)(F)F)C2)c1Cl` (stereo not drawn) [Compound 135]: the EC50 in experiment [1] was 661 nM. Also, the IC50 in experiment [2] was 23.4 nM.

As to `C[C@@H]1CN(c2nc(-c3ccncc3)[nH]c(=O)c2Cl)CCN1` [Compound 140], the EC50 in experiment [1] is 457 nM. The IC50 in experiment [2] is 6.03 nM.

Turning to `CS(=O)(=O)N1CCCN(c2nc(-c3ccncc3)[nH]c(=O)c2Cl)CC1` [Compound 145], in experiment [1], the EC50 is 269 nM. Also, the IC50 in experiment [2] is 2.51 nM.

For the molecule `O=c1[nH]c(-c2ccncc2)nc(N2CCC(F)CC2)c1Cl` [Compound 106], the EC50 in experiment [1] is 70.8 nM. The IC50 in experiment [2] is 7.59 nM.

`C[C@H]1CN(c2nc(-c3ccncc3)[nH]c(=O)c2Cl)CCN1C` [Compound 88]: in experiment [1], the EC50 is 107 nM. Moreover, the IC50 in experiment [2] was 14.1 nM.

`CCCN1CCCN(c2nc(-c3ccncc3)[nH]c(=O)c2Cl)CC1` [Compound 143]: in experiment [1], the EC50 is 407 nM. Further, the IC50 in experiment [2] was 21.4 nM.

Take `O=c1[nH]c(-c2ccncc2)nc(N2CCNCC2)c1Cl` [Compound 416, 5-chloro-4-piperazin-1-yl-2-(4-pyridyl)-1H-pyrimidin-6-one hydrochloride]: the EC50 in experiment [1] was 110 nM. The IC50 in experiment [2] is 1.95 nM.

Regarding `CC(C)CN1CCC(c2nc(-c3ccncc3)[nH]c(=O)c2Cl)CC1` [Compound 39, 5-chloro-4-(1-isobutyl-4-piperidyl)-2-(4-pyridyl)-1H-pyrimidin-6-one], the IC50 was 8.32 nM in experiment [2] and 5.75 nM in experiment [3].

Consider `O=c1[nH]c(-c2ccncc2)nc(N2C[C@H]3C[C@@H]2CN3)c1Cl` [Compound 161], for which the IC50 in experiment [2] is 31.6 nM; in experiment [3], 1.74 nM.

For `O=c1[nH]c(-c2ccncc2)nc(N2CCNC(c3ccc(Cl)cc3)C2)c1Cl` (stereo not drawn) [Compound 168], the IC50 is 9.33 nM in experiment [2] and 1.91 nM in experiment [3].
